Measurements: US8952024B2, “Herbicidal pyrimidone derivatives” (E I du Pont de Nemours and Company, priority 2009, dated 2015)

Columns and labels:
Assay in all cases: Test D pre-/postemergence plant response
Type in all cases: in vivo
[1] = system: kochia (Kochia scoparia)
Procedure, shortened: (§1)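 Pre + post applications; loam/sand soil; solvent + surfactant vehicle; post-em plants 1- to 4-leaf (2–18 cm); greenhouse 14–21 d; visual score 0 (none) to 100 (full control) vs untreated.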

[2] = system: dallisgrass (Paspalum dilatatum)
Procedure, shortened: as §1

[3] = system: quackgrass (Elytrigia repens)
Procedure, shortened: as §1

[4] = system: goosegrass (Eleusine indica)
Procedure, shortened: as §1

[5] = system: Russian thistle (Salsola kali)
Procedure, shortened: as §1

[6] = system: chickweed (common chickweed, Stellaria media); details: Postemergence
Procedure, shortened: as §1

[7] = system: Surinam grass (Brachiaria decumbens)
Procedure, shortened: as §1

[8] = system: morningglory (pitted morningglory, Ipomoea lacunosa)
Procedure, shortened: as §1

[9] = system: black mustard (Brassica nigra)
Procedure, shortened: as §1

[10] = system: large crabgrass (Digitaria sanguinalis)
Procedure, shortened: as §1

[11] = system: sandbur (southern sandbur, Cenchrus echinatus)
Procedure, shortened: as §1

[12] = system: signalgrass (broadleaf signalgrass, Brachiaria platyphylla)
Procedure, shortened: as §1

[13] = system: dayflower (Virginia (VA) dayflower, Commelina virginica)
Procedure, shortened: as §1

[14] = system: ragweed (common ragweed, Ambrosia elatior)
Procedure, shortened: as §1

[15] = system: purslane (common purslane, Portulaca oleracea)
Procedure, shortened: as §1

[16] = system: bluegrass (annual bluegrass, Poa annua)
Procedure, shortened: as §1

[17] = Postemergence, 16 g ai/ha, scale 0 to 100
[18] = Postemergence, 31 g ai/ha, scale 0 to 100
[19] = Postemergence, 125 g ai/ha, scale 0 to 100 (0 no effect, 100 complete control)
[20] = Postemergence, 62 g ai/ha, scale 0 to 100 (0 no effect, 100 complete control)
[21] = Preemergence, 16 g ai/ha, scale 0 to 100, 0 no effect, 100 complete control
[22] = Preemergence, 31 g ai/ha, scale 0 to 100 (0 no effect, 100 complete control)
[23] = Preemergence, 62 g ai/ha, scale 0 to 100
[24] = Preemergence, 125 g ai/ha, scale 0 to 100
[25] = Postemergence, 31 g ai/ha, scale 0 to 100 (0 no effect, 100 complete control)

O=C1CCCC(O)=C1C(=O)c1cnc(C2CC2)n(-c2ccccc2)c1=O [Compound 87]
98: Plant response rating, Kochia [1, 22] | Plant response rating, Dallisgrass [2, 24] | Plant response rating, Ragweed [14, 19] | Plant response rating, Ragweed [14, 22] | Plant response rating, Ragweed [14, 24]
5: Plant response rating, Quackgrass [3, 19] | Plant response rating, Sandbur [11, 17] | Plant response rating, Sandbur [11, 18]
95: Plant response rating, Goosegrass [4, 23] | Plant response rating, Morningglory [8, 24] | Plant response rating, Crabgrass, Large [10, 23] | Plant response rating, Sandbur [11, 24] | Plant response rating, Ragweed [14, 20]
60: Plant response rating, Kochia [1, 19] | Plant response rating, Signalgrass [12, 19] | Plant response rating, Signalgrass [12, 20] | Plant response rating, Dayflower, VA [13, 20]
50: Plant response rating, Dallisgrass [2, 20] | Plant response rating, Dallisgrass [2, 21] | Plant response rating, Dallisgrass [2, 22] | Plant response rating, Russian Thistle [5, 21] | Plant response rating, Surinam Grass [7, 22] | Plant response rating, Morningglory [8, 19] | Plant response rating, Crabgrass, Large [10, 21]
80: Plant response rating, Dallisgrass [2, 23] | Plant response rating, Morningglory [8, 23] | Plant response rating, Ragweed [14, 18]
70: Plant response rating, Crabgrass, Large [10, 20] | Plant response rating, Dayflower, VA [13, 19] | Plant response rating, Ragweed [14, 17] | Plant response rating, Purslane [15, 21]
75: Plant response rating, Dallisgrass [2, 19] | Plant response rating, Russian Thistle [5, 22] | Plant response rating, Chickweed ([6]; 16 g ai/ha, scale 0 to 100) | Plant response rating, Chickweed ([6]; 31 g ai/ha, scale 0 to 100) | Plant response rating, Chickweed ([6]; 62 g ai/ha, scale 0 to 100 (0 no effect, 100 complete control)) | Plant response rating, Black Mustard [9, 21] | Plant response rating, Black Mustard [9, 22] | Plant response rating, Crabgrass, Large [10, 19] | Plant response rating, Crabgrass, Large [10, 22] | Plant response rating, Signalgrass [12, 24]
40: Plant response rating, Surinam Grass [7, 18] | Plant response rating, Surinam Grass [7, 19] | Plant response rating, Surinam Grass [7, 20] | Plant response rating, Morningglory [8, 17] | Plant response rating, Morningglory [8, 18] | Plant response rating, Morningglory [8, 20] | Plant response rating, Black Mustard [9, 17] | Plant response rating, Crabgrass, Large [10, 17]
20: Plant response rating, Sandbur [11, 20] | Plant response rating, Signalgrass [12, 17] | Plant response rating, Bluegrass [16, 21] | Plant response rating, Bluegrass [16, 22]
65: Plant response rating, Kochia [1, 21] | Plant response rating, Goosegrass [4, 19] | Plant response rating, Goosegrass [4, 20] | Plant response rating, Black Mustard [9, 25] | Plant response rating, Crabgrass, Large [10, 18] | Plant response rating, Dayflower, VA [13, 23] | Plant response rating, Dayflower, VA [13, 24]
30: Plant response rating, Goosegrass [4, 17] | Plant response rating, Surinam Grass [7, 17] | Plant response rating, Signalgrass [12, 18] | Plant response rating, Ragweed [14, 21]
100: Plant response rating, Kochia [1, 23] | Plant response rating, Kochia [1, 24] | Plant response rating, Goosegrass [4, 24] | Plant response rating, Russian Thistle [5, 24] | Plant response rating, Chickweed ([6]; 125 g ai/ha, scale 0 to 100 (0 no effect, 100 complete control)) | Plant response rating, Surinam Grass [7, 24] | Plant response rating, Black Mustard [9, 19] | Plant response rating, Black Mustard [9, 20] | Plant response rating, Black Mustard [9, 23] | Plant response rating, Black Mustard [9, 24] | Plant response rating, Crabgrass, Large [10, 24] | Plant response rating, Purslane [15, 22] | Plant response rating, Purslane [15, 23] | Plant response rating, Purslane [15, 24]
0: Plant response rating, Quackgrass [3, 17] | Plant response rating, Quackgrass [3, 18] | Plant response rating, Quackgrass [3, 20] | Plant response rating, Quackgrass [3, 21] | Plant response rating, Quackgrass [3, 22] | Plant response rating, Quackgrass [3, 24] | Plant response rating, Surinam Grass [7, 21] | Plant response rating, Sandbur [11, 21] | Plant response rating, Signalgrass [12, 21] | Plant response rating, Signalgrass [12, 22] | Plant response rating, Dayflower, VA [13, 21] | Plant response rating, Dayflower, VA [13, 22] | Plant response rating, Bluegrass [16, 17] | Plant response rating, Bluegrass [16, 25] | Plant response rating, Bluegrass [16, 19] | Plant response rating, Bluegrass [16, 20]
35: Plant response rating, Kochia [1, 18] | Plant response rating, Kochia [1, 20] | Plant response rating, Goosegrass [4, 18] | Plant response rating, Goosegrass [4, 21] | Plant response rating, Goosegrass [4, 22] | Plant response rating, Russian Thistle [5, 19] | Plant response rating, Sandbur [11, 19] | Plant response rating, Dayflower, VA [13, 18] | Plant response rating, Purslane [15, 19] | Plant response rating, Purslane [15, 20] | Plant response rating, Bluegrass [16, 24]
10: Plant response rating, Morningglory [8, 21] | Plant response rating, Dayflower, VA [13, 17] | Plant response rating, Purslane [15, 17]
25: Plant response rating, Kochia [1, 17] | Plant response rating, Dallisgrass [2, 17] | Plant response rating, Dallisgrass [2, 18] | Plant response rating, Sandbur [11, 22] | Plant response rating, Purslane [15, 18] | Plant response rating, Bluegrass [16, 23]
